Consider 14 compounds from patent US7125986B2, “Penicillanic acid derivative compounds and methods of making” (Southern Methodist University Foundation for Research, priority 1997, dated 2006).

Counter-ions that a name gives are not always drawn. Like-named read-outs stand apart in the source and are kept apart here.

Test [1] deals with β-lactamase of Enterobacter cloacae P99 (Enterobacter cloacae, UniProt P05364). The test is described as follows: β-lactamase inhibition, nitrocefin hydrolysis (P99). The class given is biochemical. As to conditions: for β-lactamase inhibiting activity greater than compound 9 by a factor, P99: factor relative to compound 9. The protocol:
(§1) The IC50 value of each compound was determined as follows. Following a 10 minute incubation of a dilute solution of enzyme (2.56 nM) and inhibitor (<0.64 μM), a 50 μL aliquot of the incubation mixture was further diluted into 1 mL nitrocefin (a substrate) solution, and the rate of hydrolysis was measured during a 1 minute period by monitoring the absorbance of nitrocefin as a function of time.

For another test, the target named is TEM-1 β-lactamase (Escherichia coli, UniProt P62593). The test is described as follows: β-lactamase inhibition, nitrocefin hydrolysis (TEM-1). Type of test: biochemical. On the procedure: as §1
Where [2] appears, read: 10 minute incubation of enzyme (2.56 nM) and inhibitor, nitrocefin substrate, read-out: IC50 (uM) Ent. cloacae P99.
The mark [3] stands for this setting: 10 minute incubation of enzyme (2.56 nM) and inhibitor, nitrocefin substrate, read-out: IC50 (uM) TEM-1.

β-lactamase of Enterobacter cloacae P99, sequence (P05364 21-381): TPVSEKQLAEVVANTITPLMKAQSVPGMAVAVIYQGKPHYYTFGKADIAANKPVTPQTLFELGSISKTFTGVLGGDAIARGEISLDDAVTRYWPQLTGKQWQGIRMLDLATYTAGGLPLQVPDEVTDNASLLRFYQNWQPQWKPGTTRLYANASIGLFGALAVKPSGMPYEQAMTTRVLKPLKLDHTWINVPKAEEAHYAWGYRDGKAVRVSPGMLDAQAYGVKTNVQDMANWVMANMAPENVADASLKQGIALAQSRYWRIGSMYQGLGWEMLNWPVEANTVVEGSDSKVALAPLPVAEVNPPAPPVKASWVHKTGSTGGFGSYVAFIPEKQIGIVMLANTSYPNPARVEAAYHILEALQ
TEM-1 β-lactamase, sequence (P62593 24-286 limits assumed): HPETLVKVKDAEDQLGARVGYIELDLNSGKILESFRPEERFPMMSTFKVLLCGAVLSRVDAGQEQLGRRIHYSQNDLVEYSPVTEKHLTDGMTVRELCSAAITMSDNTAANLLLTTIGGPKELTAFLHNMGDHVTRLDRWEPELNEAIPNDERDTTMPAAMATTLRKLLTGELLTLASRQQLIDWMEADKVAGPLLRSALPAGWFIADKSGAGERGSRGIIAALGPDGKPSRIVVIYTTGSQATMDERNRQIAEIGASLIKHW

Broadly, the IC50 is the point on the concentration scale where inhibition reaches its midpoint. Regarding `COC(=O)C=C1C(=O)N2C(C(=O)O)C(C)(COC(C)=O)S(=O)(=O)C12` (stereo not drawn) [Compound 8e, Sodium salt of 2β-(acetoxymethyl)-6-[(Z)-(methoxycarbonyl)methylene]-penicillinic acid 1,1 dioxide], the IC50 in test [1] (setting [2]) came out at 2.66 µM.
With `CC1(COC(=O)CCl)C(C(=O)O)N2C(=O)C(=CC(=O)O)C2S1(=O)=O` (stereo not drawn) [Compound 8b, Disodium salt of 2β-(chloroacetoxymethyl)-6-[(Z)-carboxymethylene]-penicillinate 1,1-dioxide], the half-maximal inhibitory concentration (IC50) at TEM-1 β-lactamase (setting [3]) was 0.19 µM.
As for `Cn1nnnc1SCC(=O)OCC1(C)C(C(=O)O)N2C(=O)C(=CC(=O)O)C2S1(=O)=O` (stereo not drawn) [Compound 8g, Disodium salt of 2β-[[(1-methyl-1H-tetrazol-5-yl)thio]acetoxymethyl]-6-[(Z)-carboxymethylene]penicillinate 1,1-dioxide], the IC50 was 0.23 µM at TEM-1 β-lactamase (setting [3]) and 0.64 µM in test [1] (setting [2]).
In the case of `CC(=O)OC[C@@]1(C)[C@H](C(=O)O)N2C(=O)/C(=C/C(=O)O)[C@H]2S1(=O)=O` [Compound 8a, Disodium salt of 2β-(acetoxymethyl)-6-[(Z)-carboxymethylene]-penicillinic acid-1,1-dioxide], the IC50 on TEM-1 β-lactamase (setting [3]) came out at 0.213 µM; in test [1] (setting [2]) it was 0.383 µM. Besides, the “β-lactamase inhibiting activity greater than compound 9 by a factor, P99” value in test [1] is roughly 2.
Turning to `COC(=O)/C=C1/C(=O)N2[C@@H](C(=O)O)[C@](C)(CCl)S(=O)(=O)[C@H]12` [Compound 12b, Sodium salt of 2β-(chloromethyl)-6-[(Z)-(methoxycarbonyl)methylene]-penicillanic acid 1,1 dioxide], the IC50 in test [1] (setting [2]) was 6.96 µM.
Turning to `CC(=O)OCC1(C)C(C(=O)O)N2C(=O)C(=Cc3ccccn3)C2S1(=O)=O` (stereo not drawn) [Compound 29a, Sodium 2β-(acetoxymethyl)-1,1-dioxo-6-[(Z)-2′-pyridylmethylene]penicillinate], at TEM-1 β-lactamase, the “β-lactamase inhibiting activity against TEM-1 (in words)” value is “potent”. Also, the IC50 at TEM-1 β-lactamase (setting [3]) was determined as 0.004 µM; in test [1] (setting [2]), 0.062 µM. The “β-lactamase inhibiting activity against P99 (in words)” value in test [1] is listed as “potent”.
For the compound `CC1(COC(=O)Cc2ccc(O)c(O)c2)C(C(=O)O)N2C(=O)C(=CC(=O)O)C2S1(=O)=O` (stereo not drawn) [Compound 8i, Disodium Salt of 2β-[(3′,4′-Dihydroxyphenyl)acetoxy]methyl-6-[(Z)-carboxymethylene]-1,1-dioxopenicillinate], the IC50 in test [1] (setting [2]) was found to be 0.37 µM.
Regarding `CC(C)(C)OC(=O)/C=C1/C(=O)N2[C@@H](C(=O)O)[C@](C)(CCl)S(=O)(=O)[C@H]12` [Compound 12a, Sodium salt of 2β-(chloromethyl)-6-[(Z)-(t-butoxycarbonyl)methylene]-penicillinic acid 1,1 dioxide], the values for the IC50 (on TEM-1 β-lactamase (setting [3]); in test [1] (setting [2])) were 39 µM and 7.62 µM, respectively.
Take `C[C@]1(C=CC#N)[C@H](C(=O)O)N2C(=O)/C(=C/C(=O)O)[C@H]2S1(=O)=O` (mixture of isomers) [Compound 17, Disodium Salt of 2β-[(E/Z)-(cyanoethenyl)]-6-[(Z)-carboxymethylene]-penicillinate 1,1-dioxide]: the IC50 in test [1] (setting [2]) came out at 6.76 µM.
As to `C[C@]1(COC(=O)Cc2ccccc2)[C@H](C(=O)O)N2C(=O)/C(=C/c3ccccn3)[C@H]2S1(=O)=O` [Compound 29b, Sodium 1,1-Dioxo-2β-(phenylacetoxy)methyl-6-[(Z)-2′-pyridylmethylene]penicillinate], at TEM-1 β-lactamase, 0.39 µM corresponded to half-maximal inhibition (IC50) and the “β-lactamase inhibiting activity against TEM-1 (in words)” value is given as “potent”. For the same compound, in test [1], the “β-lactamase inhibiting activity against P99 (in words)” value is “potent”.
Consider `COC(=O)/C=C1/C(=O)N2[C@@H](C(=O)O)[C@](C)(COC(=O)CSc3nnnn3C)S(=O)(=O)[C@H]12` [Compound 8h, Sodium salt of 2β-[[(1-methyl-1H-tetrazol-5-yl)thio]acetoxymethyl]-6-[(Z)-(methoxycarbonyl)methylene]penicillinate 1,1-dioxide], for which the IC50 in test [1] (setting [2]) is 3.69 µM.
For the compound `C[C@]1(COC=O)[C@H](C(=O)O)N2C(=O)/C(=C/C(=O)O)[C@H]2S1(=O)=O` [Compound 8c, Disodium salt of 2β-(formyloxymethyl)-6-[(Z)-carboxymethylene]-penicillinate 1,1-dioxide], the half-inhibitory concentration (IC50) in test [1] (setting [2]) turned out to be 0.3 µM. Besides, the “β-lactamase inhibiting activity greater than compound 9 by a factor, P99” value in test [1] is reported as roughly 2.
Turning to `CC1(CCl)C(C(=O)O)N2C(=O)/C(=C/C(=O)O)C2S1(=O)=O` (stereo not drawn) [Compound 12c, Disodium salt of 2β-(chloromethyl)-6-[(Z)-carboxymethylene]penicillinate 1,1-dioxide], the results for the 50% inhibitory concentration (IC50) (on TEM-1 β-lactamase (setting [3]); in test [1] (setting [2])) were 120 µM and 105 µM, respectively.
As for `C[C@]1(COC(=O)Cc2ccccc2)[C@H](C(=O)O)N2C(=O)/C(=C/C(=O)O)[C@H]2S1(=O)=O` [Compound 8d, Disodium salt of 2β-(phenylacetoxymethyl)-6-[(Z)-carboxymethylene]-penicillinate 1,1-dioxide], the IC50 against TEM-1 β-lactamase is 0.015 µM; in test [1], 0.54 µM.
